Entries after “also recorded” stand apart in the source; their conditions may differ. Where two headings read alike, the source gives them in different places. Numbered stars: 1 amine (or outer) side, 2 acyl side, 3 side chain; on linkers, the order of the positions; unused ones are H or OH. Bridge positions count the residues as written; N and C are the ends. Square brackets hold non-standard residues; d marks the D form. Peptide text beside a SMILES is read from it. I, II: the chains in the order shown. Actinocin(9to1) = Cc1c2oc3c(C)ccc(C(=O)[*:1])c3nc-2c(C(=O)[*:2])c(N)c1=O; NMeV = CN[C@H](C(=O)O)C(C)C; Sar = CNCC(=O)O
What was measured:
[1] = test system: sigma-2 receptor; conditions: cited from earlier work; for sigma receptor subtype selectivity: sigma-2 vs sigma-1
[2] = test system: tumor cell lines or primary cultures of rat neuronal cells; conditions: continued exposure; cited from earlier work
[3] = test system: T47D cells; format: cell-based, human
Protocol: (§1) Cells were seeded at 100,000 cells/well.
(§2) DNA fragmentation occurring during apoptosis can be detected by incorporating fluorescein-12-dUTP at the 3′-OH DNA ends using the enzyme, terminal deoxynucleotidyl transferase (TdT). TUNEL (TdT-mediated dUTP Nick-End Labeling) was performed using the Apoptosis Detection System, Fluorescein Kit (Promega, Madison, Wis.) according to the manufacturer's specification. After treatment with sigma ligands at the concentrations and times specified, cells were fixed with 4% formaldehyde, permeabilized with Triton X-100, and incubated with fluorescein-12-dUTP and terminal deoxynucleotidyl transferase and then with propidium iodide. Propidium iodide stains the DNA in both apoptotic and non-apoptotic cells with orange-red color. Fluorescein produces yellow-green fluorescence, indicating fragmented DNA within the nucleus of apoptotic cells. Filters used: excitation 450-490 nm, barrier 520 nm.

[4] = test system: MCF-7 cells; test: Detection of apoptosis by the TUNEL method; format: cell-based, human; conditions: 100 μM, 48 hours; for TUNEL assay result: FIG. 2
Protocol: as §1, §2

[5] = test system: SKBr3 cells; test: Cytotoxicity assay, LDH release into culture medium; format: cell-based, human; conditions: various concentrations, FIG. 3A
Protocol: as §1

[6] = test system: T47D cells; test: as above; format: cell-based, human; conditions: various concentrations, FIG. 3B
Protocol: as §1

[7] = test system: MCF-7 cells
Protocol: (§3) Human breast tumor cell lines (MCF-7, T47D, SKBr3, and MCF-7/Adr^−) were cultured in DMEM containing 3.7 g/liter Na2HCO3, fetal bovine serum (10%), and insulin (10 mg/liter). For cytotoxicity assays, cells were transferred to DMEM+Ham's nutrient mixture F-12 (without phenol red), with 1.2 g/liter Na2HCO3. Cells were seeded at 100,000 cells/well. Human SK-N-SH neuroblastoma and DU-145 prostate carcinoma cells were cultured in DMEM, supplemented with fetal bovine serum (10%).
(§4) Cell death was assessed by release of lactate dehydrogenase (LDH) into the culture medium using the CytoTox 96 kit from Promega (Madison, Wis.). The method used was as specified by manufacturer with minor modifications. Cells were plated and cultured in 24-well plates for 1 to 2 days prior to the experiment. Cells were treated in the plates under the specified drug conditions. Following treatment, the medium was transferred to centrifuge tubes and centrifuged to remove cell debris. Supernatant (50 μl) was transferred to a 96-well plate, to which was added substrate mix in assay buffer, followed by stop solution after a 30 min incubation. Formation of formazan was monitored at 490 nm in a plate reader. Values are expressed relative to total lysis controls (Triton X-100 was used to determine value for 100% cell kill) and no drug-controls. Doxorubicin and caspase inhibitors (Z-VAD-FMK, Y-VAD-CHO, DEVD-CHO) were obtained from Calbiochem (San Diego, Calif.) and actinomycin-D from Sigma (St. Louis, Mo.).

[8] = test system: MCF-7/Adr^− cells; test: Cytotoxicity assay, LDH release into culture medium
Protocol: as §3, §4

[9] = test system: breast tumor cell lines; test: Cytotoxicity (LDH release) across breast tumor cell lines; format: cell-based, human; conditions: for relative cytotoxic potency: FIG. 3A, 3B, 4B; for effect of p53 status on cytotoxic potency: mutant p53 (MCF-7/Adr^−, SKBr3, T47D) vs wild-type p53 MCF-7, FIG. 4B
Protocol: as §1

[10] = test system: SK-N-SH neuroblastoma cells; conditions: cited from earlier work
[11] = test system: SKBr3 cell lines; format: cell-based, human
Protocol: as §1, §2

[12] = test system: breast tumor cell lines possessing p53 mutations; conditions: Crawford et al., 1999; cited from earlier work
[13] = test system: MCF-7 cells; test: Detection of apoptosis by Annexin V binding; format: cell-based, human; conditions: drug 100 μM; Z-VAD-FMK or Y-VAD-CHO 50 μM; 48 hours; FIG. 5
Protocol: as §1
The early stages of apoptosis are characterized by translocation of phosphatidyl serine (PS) from the inner surface of the plasma membrane to the outer surface of the membrane. Externalized PS can then be detected using Annexin V, a protein with high affinity for PS. This was carried out using the ApoAlert Annexin V Apoptosis Kit (Clontech, Palo Alto, Calif.) according to the manufacturer's specifications. After incubation with sigma ligands at the concentrations and times specified, live cells (without fixing) were incubated with annexin V-FITC and propidium iodide, and were investigated using fluorescence microscopy. […] Filters used: excitation 450 nm, barrier 535 nm.

[14] = up to 100 mg orally every four hours, 30 mg IV and 60 mg IM; cited from earlier work

Compound: CC(C)=CCN1CCC2(C)c3cc(O)ccc3CC1C2C (single isomer, unassigned; (-)) [(−)-Pentazocine]
- sigma-2 affinity [1]: has sigma-2 affinity

Compound: CC(C)=CCN1CCC2(C)c3cc(O)ccc3CC1C2C (single isomer, unassigned; (+)) [(+)-pentazocine]
- cell morphological changes and cell death [2]: lack of activity
- sigma-2 affinity [1]: binds very weakly

Compound: OC(CCCN1CCC(O)(c2ccc(Cl)cc2)CC1)c1ccc(F)cc1 (stereo not shown) [reduced haloperidol]
- cell morphological changes and cell death [2]: cell death
- TUNEL assay result [3]: positive results
- sigma receptor subtype selectivity [1]: subtype non-selective
- extent of apoptotic changes / apoptotic nuclei (TUNEL) [4]: less extensively than the more potent CB64D
- TUNEL assay result [4]: positive results

Compound: CN1CC[C@]2(c3cccc(O)c3)CC(=O)/C(=C/c3ccc(Cl)c(Cl)c3)[C@H]1C2 [CB-184, (+)-1R,5R-E-8-(3,4-dichlorobenzylidene)-5-(3-hydroxyphenyl)-2-methylmorphan-7-one]
- cytotoxicity (LDH release, percentage of total cell kill) [5]: cytotoxic
- cytotoxicity (LDH release, percentage of total cell kill) [6]: cytotoxic
- cytotoxicity of combination with doxorubicin ([7]; CB184 1 μM + doxorubicin 10 μM, 24 and 48 hours, FIG. 7A, 7B): Clear synergistic effects
- effect of DEVD-CHO on cytotoxicity (LDH release) ([7]; DEVD-CHO 50 μM, caspase 3 inhibitor, FIG. 6A, 6B): no difference
- effect of caspase inhibitors on drug-induced cytotoxicity (LDH release) ([7]; DEVD-CHO or Z-VAD-FMK 50 μM, FIG. 6A-6C): not that induced by CB-184
- cytotoxicity of combination with actinomycin D ([8]; CB184 1 μM + actinomycin D 1 μg/ml at 24 hours or 0.1 μg/ml at 48 hours, FIG. 7C, 7D): potentiated
- cytotoxicity of combination with doxorubicin ([8]; CB184 1 μM + doxorubicin 10 μM): less pronounced
- sigma receptor subtype selectivity [1]: sigma-2 subtype-selective
- concentration below which toxicity is generally not seen in the LDH assay ([9]; 24 hrs): below 1 μM
- relative cytotoxic potency ([9]; intact cells): more potent than CB-64D; also recorded: most potent sigma-2 selective agent in intact cells
- relative cytotoxic potency ([9]; intact cells, listed as CB184): greatest potency in all cell lines tested
- LDH release compared to controls ([9]; below 1 μM, 48 hrs): mildly increased LDH release
- effect of p53 status on cytotoxic potency [9]: generally not affected by p53 status; also recorded: comparable

Compound: CN(C)CCN(C)CCc1ccc(Cl)c(Cl)c1 [BD1047]
- antagonist activity in the calcium assay ([10]; pH 7.2): ineffective
- antagonist activity in the calcium assay ([10]; pH 8.2): effectively attenuated agonist activity

Compound: Cc1c2oc3c(C)ccc(C(=O)N[C@@H]4C(=O)N[C@H](C(C)C)C(=O)N5CCC[C@H]5C(=O)N(C)CC(=O)N(C)[C@@H](C(C)C)C(=O)O[C@@H]4C)c3nc-2c(C(=O)N[C@@H]2C(=O)N[C@H](C(C)C)C(=O)N3CCC[C@H]3C(=O)N(C)CC(=O)N(C)[C@@H](C(C)C)C(=O)O[C@@H]2C)c(N)c1=O [actinomycin D] (I: T[dV]P[Sar][NMeV] / II: T[dV]P[Sar][NMeV]; ester I:1-I:C, II:1-II:C; linker I:N-II:N via Actinocin(9to1))
- induction of apoptosis [3]: apoptosis was induced
- induction of apoptosis [11]: apoptosis was induced
- induction of apoptosis [12]: greatly attenuated

Compound: O=C(CCCN1CCC(O)(c2ccc(Cl)cc2)CC1)c1ccc(F)cc1 [haloperidol]
- cell morphological changes and cell death [2]: cell death
- TUNEL assay result ([3]; 100 μM, 48 hours, FIG. 2): positive results
- sigma receptor subtype selectivity [1]: subtype non-selective
- extent of apoptotic changes / apoptotic nuclei (TUNEL) [4]: less extensively than the more potent CB64D
- TUNEL assay result [4]: positive results

Compound: CN1CCN(CCc2ccc(Cl)c(Cl)c2)CC1 [BD1063]
- antagonist activity in the calcium assay ([10]; pH 7.2): ineffective
- antagonist activity in the calcium assay ([10]; pH 8.2): effectively attenuated agonist activity

Compound: COc1cccc2c1C(=O)c1c(O)c3c(c(O)c1C2=O)C[C@@](O)(C(=O)CO)C[C@@H]3O[C@H]1C[C@H](N)[C@H](O)[C@H](C)O1 [doxorubicin]
- induction of apoptosis [3]: apoptosis was induced
- TUNEL assay result ([3]; 100 μM, 48 hours, FIG. 2): positive results
- induction of apoptosis [11]: apoptosis was induced
- induction of apoptosis [12]: greatly attenuated
- effect of caspase inhibitors on drug-induced apoptosis (Annexin V binding) [13]: blocked apoptosis induced by doxorubicin
- LDH release ([7]; various concentrations, FIG. 6C): dose-dependent increase in LDH-release
- TUNEL assay result [4]: positive results

Compound: O=P1(N(CCCl)CCCl)NCCCO1 (stereo not shown) [cyclophosphamide]
- induction of apoptosis [3]: apoptosis was induced
- induction of apoptosis [11]: apoptosis was induced

Compound: CC(C)=CCN1CCC2(C)c3cc(O)ccc3CC1C2C (racemic) [pentazocine]
- potentiation of doxorubicin-induced cytotoxicity ([7]; combined with doxorubicin in MCF-7 cells): Little or no potentiation
- peak plasma concentrations [14]: about 160 ng/ml
- potentiation of doxorubicin-induced cytotoxicity ([8]; haloperidol 25 μM or pentazocine 35 μM with various concentrations of doxorubicin, FIG. 8): potentiated the cytotoxicity of doxorubicin; also recorded: potentiated the higher doses of doxorubicin

Compound: 12-methoxyibogamine [ibogaine]
- cell morphological changes and cell death [2]: activity

Compound: CN1CC[C@]2(c3cccc(O)c3)CC(=O)/C(=C/c3ccccc3)[C@H]1C2 [CB-64D, (+)-1R,5R-E-8-benzylidene-5-(3-hydroxyphenyl)-2-methylmorphan-7-one]
- cell morphological changes and cell death [2]: activity
- cytotoxicity (LDH release, percentage of total cell kill) [5]: cytotoxic
- cytotoxicity (LDH release, percentage of total cell kill) [6]: cytotoxic
- TUNEL assay result ([3]; 100 μM, 48 hours, FIG. 2): positive results
- induction of apoptosis [12]: induce apoptosis
- effect of caspase inhibitors on drug-induced apoptosis (Annexin V binding) [13]: unaffected by co-treatment with caspase inhibitors
- sigma receptor subtype selectivity [1]: sigma-2 subtype-selective
- potency relative to CB-184 (fold less potent) ([9]; intact cells): about 10 fold
- effect of p53 status on cytotoxic potency [9]: generally not affected by p53 status; also recorded: comparable
- extent of apoptotic changes / apoptotic nuclei (TUNEL) [4]: extensive apoptotic changes
- TUNEL assay result [4]: positive results
- cells visualized displaying apoptotic nuclei ([4]; in some experiments): up to 100%

— patent US20030171397A1 (priority 2003, published 2003)
